Reference: ChEMBL document CHEMBL5696439 (Cancer Res, 2010)
The source made the active and inactive calls. The calls are words filed in the database; no cut-off is given here.

How the values were obtained:
[1] = molecular target: Calcium/calmodulin-dependent protein kinase type II subunit delta (Homo sapiens) (UniProt Q13557); test: Inhibition of recombinant human full-length His-tagged CAMK2D expressed in insect cells at 2 uM using Ser/Thr 04 as substrate measured after 1 hr by Z'-LYTE assay relative to control; conditions: Insect cell
[2] = molecular target: Cyclin-dependent kinase 5/CDK5 activator 1 (Homo sapiens) (UniProt Q00535+Q15078); test: Inhibition of recombinant human full-length GST/His-tagged CDK5/p25 expressed in insect cells at 2 uM using Ser/Thr 12 as substrate measured after 1 hr by Z'-LYTE assay relative to control; conditions: Insect cell
[3] = molecular target: Dual specificity protein kinase CLK3 (Homo sapiens) (UniProt P49761); test: Inhibition of recombinant human full-length GST-tagged CLK3 expressed in insect cells at 2 uM using Ser/Thr 18 as substrate measured after 1 hr by Z'-LYTE assay relative to control; conditions: Insect cell
[4] = molecular target: Dual specificity tyrosine-phosphorylation-regulated kinase 1A (Homo sapiens) (UniProt Q13627); test: Inhibition of recombinant human full-length GST-tagged DYRK1A expressed in insect cells at 2 uM using Ser/Thr 18 as substrate measured after 1 hr by Z'-LYTE assay relative to control; conditions: Insect cell
[5] = molecular target: Ephrin type-A receptor 4 (Homo sapiens) (UniProt P54764); test: Inhibition of recombinant human GST-tagged EPHA4 (616-887 residues) expressed in insect cells at 2 uM using Tyr 02 as substrate measured after 1 hr by Z'-LYTE assay relative to control; conditions: Insect cell
[6] = molecular target: Ephrin type-B receptor 4 (Homo sapiens) (UniProt P54760); test: Inhibition of recombinant human His-tagged EPHB4 (561-987 residues) expressed in baculovirus expression system at 2 uM using Tyr 01 as substrate measured after 1 hr by Z'-LYTE assay relative to control
[7] = molecular target: Tyrosine-protein kinase Fer (Homo sapiens) (UniProt P16591); test: Inhibition of recombinant human His-tagged FER (541-822 residues) expressed in baculovirus expression system at 2 uM using Tyr 05 as substrate measured after 1 hr by Z'-LYTE assay relative to control
[8] = molecular target: Vascular endothelial growth factor receptor 1 (Homo sapiens) (UniProt P17948); test: Inhibition of recombinant human GST-tagged FLT1 (781-1338 residues) expressed in insect cells at 2 uM using Tyr 04 as substrate measured after 1 hr by Z'-LYTE assay relative to control; conditions: Insect cell
[9] = system: Tyrosine-protein kinase JAK2 (Homo sapiens), O60674 [V617F]; test: Inhibition of recombinant human GST-tagged JAK2 JH1 JH2 domains V617F mutant (532-1132 residues) expressed in insect cells at 2 uM using Tyr 06 as substrate measured after 1 hr by Z'-LYTE assay relative to control; conditions: Insect cell
[10] = molecular target: MAP kinase-activated protein kinase 2 (Homo sapiens) (UniProt P49137); test: Inhibition of recombinant human full length His-tagged MAPKAPK2 expressed in E. coli at 2 uM using Ser/Thr 04 as substrate measured after 1 hr by Z'-LYTE assay relative to control
[11] = molecular target: Serine/threonine-protein kinase PAK 2 (Homo sapiens) (UniProt Q13177); test: Inhibition of recombinant human full length GST-tagged PAK2 expressed in insect cells at 2 uM using Ser/Thr 20 as substrate measured after 1 hr by Z'-LYTE assay relative to control; conditions: Insect cell
[12] = molecular target: Serine/threonine-protein kinase PAK 5 (Homo sapiens) (UniProt Q9P286); test: Inhibition of recombinant human His-tagged PAK7 (425-719 residues) expressed in baculovirus expression system at 2 uM using Ser/Thr 20 as substrate measured after 1 hr by Z'-LYTE assay relative to control
[13] = molecular target: Serine/threonine-protein kinase Sgk1 (Homo sapiens) (UniProt O00141); test: Inhibition of recombinant human GST-tagged SGK (60-431 residues) expressed in insect cells at 2 uM using Ser/Thr 06 as substrate measured after 1 hr by Z'-LYTE assay relative to control; conditions: Insect cell
[14] = molecular target: Serine/threonine-protein kinase TAO2 (Homo sapiens) (UniProt Q9UL54); test: Inhibition of recombinant human GST-tagged TAOK2 (1-314 residues) expressed in insect cells at 2 uM using Ser/Thr 07 as substrate measured after 1 hr by Z'-LYTE assay relative to control; conditions: Insect cell
NCI-H460 = test: Antiproliferative activity against human NCI-H460 cells assessed as cell growth inhibition incubated for 24 hrs by MTS assay; assay type: functional, cell-based; conditions: NCI-H460, 24 h
U-87 MG = test: Antiproliferative activity against human U-87MG cells assessed as cell growth inhibition incubated for 24 hrs by MTS assay; assay type: functional, cell-based, U-87MG ATCC
MDA-MB-361 [15] = test: Induction of apoptosis in HER2 hyperactive human MDA-MB-361 cells assessed as massive cell death at 0.001 to 100 micromol/L incubated for 48 hrs by FACS analysis; assay type: functional, cell-based; conditions: dose 0.001-100 µmol/L
MDA-MB-361 [16] = test: Induction of apoptosis in human MDA-MB-361 cells assessed as PARP cleavage at 0.05 to 5 micromol/L incubated for 48 hrs by Western blot analysis; assay type: functional, cell-based; conditions: dose 0.05-5 µmol/L
HT-29 [17] = test: Induction of apoptosis in human HT-29 cells assessed as increase in PARP cleavage at 0.3 to 3 micromol/L incubated for 48 hrs by Western blot analysis; assay type: functional, cell-based; conditions: dose 0.3-3 µmol/L
HT-29 [18] = test: Antitumor activity against human HT-29 cells xenografted in female nude mouse model assessed as suppression in P-S6K at T389 level at 50 mg/kg, iv administered once a week and measured at least 8 hrs by immunoblot analysis; assay type: functional, organism-based
MDA-MB-361 [19] = test: Antitumor activity against human MDA-MB-361 cells xenografted in female nude mouse model assessed as suppression in P-S6K at T389 level at 50 mg/kg, po qd administered as 5 days on/2 days off regimen for 4 cycles by immunoblot analysis; assay type: functional, organism-based; conditions: time 28.0 day
A549 [20] = test: Antitumor activity against human A549 cells xenografted in female nude mouse model assessed as inhibition in tumor growth at 10 to 50 mg/kg, po qd administered as 5 days on/2 days off regimen for 4 cycles; assay type: functional, organism-based; conditions: dose 10-50 mg/kg, time 28.0 day
A549 [21] = test: Antitumor activity against human A549 cells xenografted in female nude mouse model assessed as substantial regression in large tumor growth at 50 mg/kg, po qd administered as 5 days on/2 days off regimen for 4 cycles; assay type: functional, organism-based; conditions: time 28.0 day
A498 = test: Synergistic antitumor activity against human A498 cells xenografted in female nude mouse model assessed as cause in tumor regression at 50 mg/kg, po qd administered as 5 days on/2 days off regimen for 4 cycles in the presence of BEV; assay type: functional, organism-based; conditions: time 28.0 day
mTORC2 (Homo sapiens) = mTORC2 (Homo sapiens) (UniProt P42345+Q6R327+Q9BVC4+Q9BPZ7); conditions: PC3MM2, dose 0.1-1 µM, time 6.0 hrs

Sequence of Dual specificity protein kinase CLK3 (Homo sapiens) (P49761 whole entry, looked up): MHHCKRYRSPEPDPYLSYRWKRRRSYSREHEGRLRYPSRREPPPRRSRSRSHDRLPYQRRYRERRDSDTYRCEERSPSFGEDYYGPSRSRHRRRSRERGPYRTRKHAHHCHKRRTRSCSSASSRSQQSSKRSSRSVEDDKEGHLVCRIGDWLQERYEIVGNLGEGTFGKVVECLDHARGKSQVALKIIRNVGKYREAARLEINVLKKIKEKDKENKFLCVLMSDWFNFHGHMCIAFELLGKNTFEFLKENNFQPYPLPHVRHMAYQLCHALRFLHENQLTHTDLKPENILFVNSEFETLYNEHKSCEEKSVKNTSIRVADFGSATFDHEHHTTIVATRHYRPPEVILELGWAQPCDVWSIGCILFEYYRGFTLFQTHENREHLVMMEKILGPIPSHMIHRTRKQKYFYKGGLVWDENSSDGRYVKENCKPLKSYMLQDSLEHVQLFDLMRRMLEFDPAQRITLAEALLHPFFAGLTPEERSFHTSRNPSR
Sequence of Calcium/calmodulin-dependent protein kinase type II subunit delta (Homo sapiens) (Q13557 whole entry): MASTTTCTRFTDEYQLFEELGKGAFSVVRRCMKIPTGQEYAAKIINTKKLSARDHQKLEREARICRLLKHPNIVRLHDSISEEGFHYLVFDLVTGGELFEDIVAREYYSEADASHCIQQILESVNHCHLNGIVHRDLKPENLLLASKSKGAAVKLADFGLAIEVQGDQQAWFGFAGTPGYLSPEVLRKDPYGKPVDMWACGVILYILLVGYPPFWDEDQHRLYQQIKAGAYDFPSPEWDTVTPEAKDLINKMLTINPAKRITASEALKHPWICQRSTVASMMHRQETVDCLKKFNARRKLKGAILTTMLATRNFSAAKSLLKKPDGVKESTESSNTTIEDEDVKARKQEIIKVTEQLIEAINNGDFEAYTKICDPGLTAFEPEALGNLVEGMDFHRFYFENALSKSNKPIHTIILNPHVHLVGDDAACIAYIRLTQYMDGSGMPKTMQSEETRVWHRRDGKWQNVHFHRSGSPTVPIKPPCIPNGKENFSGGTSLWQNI
Sequence of Tyrosine-protein kinase JAK2 (Homo sapiens), O60674 [V617F] (O60674 whole entry V617F, the tested form may be a part): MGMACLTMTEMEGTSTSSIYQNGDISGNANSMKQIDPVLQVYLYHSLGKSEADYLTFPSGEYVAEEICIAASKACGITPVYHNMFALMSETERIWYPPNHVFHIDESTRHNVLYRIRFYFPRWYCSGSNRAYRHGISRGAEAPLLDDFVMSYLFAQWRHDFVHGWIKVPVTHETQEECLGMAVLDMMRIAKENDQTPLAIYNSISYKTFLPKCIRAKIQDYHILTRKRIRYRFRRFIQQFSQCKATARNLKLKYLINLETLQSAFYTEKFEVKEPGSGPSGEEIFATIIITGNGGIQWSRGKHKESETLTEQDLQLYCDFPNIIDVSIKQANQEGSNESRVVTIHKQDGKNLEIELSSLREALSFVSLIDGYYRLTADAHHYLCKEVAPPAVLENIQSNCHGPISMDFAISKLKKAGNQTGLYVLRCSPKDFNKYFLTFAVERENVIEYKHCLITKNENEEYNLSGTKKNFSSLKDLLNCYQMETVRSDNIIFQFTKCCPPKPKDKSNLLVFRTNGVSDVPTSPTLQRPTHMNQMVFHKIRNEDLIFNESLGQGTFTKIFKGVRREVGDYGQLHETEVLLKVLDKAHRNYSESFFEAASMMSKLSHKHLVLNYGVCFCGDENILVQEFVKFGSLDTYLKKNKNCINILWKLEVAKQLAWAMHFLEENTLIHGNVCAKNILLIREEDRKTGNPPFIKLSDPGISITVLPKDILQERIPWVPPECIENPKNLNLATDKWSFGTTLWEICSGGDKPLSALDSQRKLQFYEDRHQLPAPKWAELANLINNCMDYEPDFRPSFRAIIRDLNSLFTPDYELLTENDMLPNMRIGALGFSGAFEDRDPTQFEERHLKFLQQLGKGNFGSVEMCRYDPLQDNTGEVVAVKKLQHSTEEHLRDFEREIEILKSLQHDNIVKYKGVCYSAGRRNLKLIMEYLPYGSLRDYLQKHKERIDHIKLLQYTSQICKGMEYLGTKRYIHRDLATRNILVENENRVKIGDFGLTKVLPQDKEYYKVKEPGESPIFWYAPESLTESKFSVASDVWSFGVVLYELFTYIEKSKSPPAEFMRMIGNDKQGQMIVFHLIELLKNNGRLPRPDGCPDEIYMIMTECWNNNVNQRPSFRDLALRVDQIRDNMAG
Sequence of Cyclin-dependent kinase 5/CDK5 activator 1 (Homo sapiens) (Q00535 whole entry): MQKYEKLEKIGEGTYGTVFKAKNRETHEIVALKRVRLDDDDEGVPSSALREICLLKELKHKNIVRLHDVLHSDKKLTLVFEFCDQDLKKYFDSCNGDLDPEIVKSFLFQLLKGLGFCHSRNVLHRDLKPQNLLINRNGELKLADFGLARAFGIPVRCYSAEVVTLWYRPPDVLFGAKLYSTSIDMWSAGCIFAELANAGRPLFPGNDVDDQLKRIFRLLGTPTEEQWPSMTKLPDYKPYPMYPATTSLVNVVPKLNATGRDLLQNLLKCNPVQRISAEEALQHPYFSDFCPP
Sequence of Cyclin-dependent kinase 5/CDK5 activator 1 (Homo sapiens) (Q15078 99-307 partner limits assumed): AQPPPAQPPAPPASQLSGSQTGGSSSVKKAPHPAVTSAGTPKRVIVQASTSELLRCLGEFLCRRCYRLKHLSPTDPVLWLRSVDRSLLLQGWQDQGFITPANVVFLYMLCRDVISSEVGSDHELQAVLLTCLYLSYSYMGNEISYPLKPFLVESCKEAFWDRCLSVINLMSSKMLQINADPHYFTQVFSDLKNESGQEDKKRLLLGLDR
Sequence of Ephrin type-A receptor 4 (Homo sapiens) (P54764 whole entry, the tested form may be a part): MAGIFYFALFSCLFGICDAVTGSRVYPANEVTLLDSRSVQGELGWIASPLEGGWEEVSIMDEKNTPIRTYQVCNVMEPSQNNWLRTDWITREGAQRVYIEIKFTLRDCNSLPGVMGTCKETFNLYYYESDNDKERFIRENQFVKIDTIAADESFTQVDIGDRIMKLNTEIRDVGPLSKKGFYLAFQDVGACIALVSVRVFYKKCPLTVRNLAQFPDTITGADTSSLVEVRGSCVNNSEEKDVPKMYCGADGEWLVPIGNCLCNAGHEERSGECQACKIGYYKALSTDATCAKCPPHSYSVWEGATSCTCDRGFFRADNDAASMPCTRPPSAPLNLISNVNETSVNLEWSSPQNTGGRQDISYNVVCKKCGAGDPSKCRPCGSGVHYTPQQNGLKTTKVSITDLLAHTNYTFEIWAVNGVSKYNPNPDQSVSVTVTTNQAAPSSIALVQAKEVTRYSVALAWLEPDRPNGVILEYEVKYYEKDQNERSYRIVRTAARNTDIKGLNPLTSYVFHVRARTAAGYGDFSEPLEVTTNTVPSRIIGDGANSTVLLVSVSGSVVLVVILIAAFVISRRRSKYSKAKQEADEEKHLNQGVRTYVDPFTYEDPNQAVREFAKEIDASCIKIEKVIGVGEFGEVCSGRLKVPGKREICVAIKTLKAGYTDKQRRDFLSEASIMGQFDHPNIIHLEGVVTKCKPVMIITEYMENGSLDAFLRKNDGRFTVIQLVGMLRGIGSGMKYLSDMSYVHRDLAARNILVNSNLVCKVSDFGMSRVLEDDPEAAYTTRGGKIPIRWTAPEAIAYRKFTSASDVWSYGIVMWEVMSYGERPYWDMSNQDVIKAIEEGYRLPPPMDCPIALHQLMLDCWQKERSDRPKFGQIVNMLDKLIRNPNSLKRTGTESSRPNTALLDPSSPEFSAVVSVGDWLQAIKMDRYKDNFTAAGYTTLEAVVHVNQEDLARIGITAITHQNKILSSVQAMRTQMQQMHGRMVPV
Sequence of Vascular endothelial growth factor receptor 1 (Homo sapiens) (P17948 whole entry, the tested form may be a part): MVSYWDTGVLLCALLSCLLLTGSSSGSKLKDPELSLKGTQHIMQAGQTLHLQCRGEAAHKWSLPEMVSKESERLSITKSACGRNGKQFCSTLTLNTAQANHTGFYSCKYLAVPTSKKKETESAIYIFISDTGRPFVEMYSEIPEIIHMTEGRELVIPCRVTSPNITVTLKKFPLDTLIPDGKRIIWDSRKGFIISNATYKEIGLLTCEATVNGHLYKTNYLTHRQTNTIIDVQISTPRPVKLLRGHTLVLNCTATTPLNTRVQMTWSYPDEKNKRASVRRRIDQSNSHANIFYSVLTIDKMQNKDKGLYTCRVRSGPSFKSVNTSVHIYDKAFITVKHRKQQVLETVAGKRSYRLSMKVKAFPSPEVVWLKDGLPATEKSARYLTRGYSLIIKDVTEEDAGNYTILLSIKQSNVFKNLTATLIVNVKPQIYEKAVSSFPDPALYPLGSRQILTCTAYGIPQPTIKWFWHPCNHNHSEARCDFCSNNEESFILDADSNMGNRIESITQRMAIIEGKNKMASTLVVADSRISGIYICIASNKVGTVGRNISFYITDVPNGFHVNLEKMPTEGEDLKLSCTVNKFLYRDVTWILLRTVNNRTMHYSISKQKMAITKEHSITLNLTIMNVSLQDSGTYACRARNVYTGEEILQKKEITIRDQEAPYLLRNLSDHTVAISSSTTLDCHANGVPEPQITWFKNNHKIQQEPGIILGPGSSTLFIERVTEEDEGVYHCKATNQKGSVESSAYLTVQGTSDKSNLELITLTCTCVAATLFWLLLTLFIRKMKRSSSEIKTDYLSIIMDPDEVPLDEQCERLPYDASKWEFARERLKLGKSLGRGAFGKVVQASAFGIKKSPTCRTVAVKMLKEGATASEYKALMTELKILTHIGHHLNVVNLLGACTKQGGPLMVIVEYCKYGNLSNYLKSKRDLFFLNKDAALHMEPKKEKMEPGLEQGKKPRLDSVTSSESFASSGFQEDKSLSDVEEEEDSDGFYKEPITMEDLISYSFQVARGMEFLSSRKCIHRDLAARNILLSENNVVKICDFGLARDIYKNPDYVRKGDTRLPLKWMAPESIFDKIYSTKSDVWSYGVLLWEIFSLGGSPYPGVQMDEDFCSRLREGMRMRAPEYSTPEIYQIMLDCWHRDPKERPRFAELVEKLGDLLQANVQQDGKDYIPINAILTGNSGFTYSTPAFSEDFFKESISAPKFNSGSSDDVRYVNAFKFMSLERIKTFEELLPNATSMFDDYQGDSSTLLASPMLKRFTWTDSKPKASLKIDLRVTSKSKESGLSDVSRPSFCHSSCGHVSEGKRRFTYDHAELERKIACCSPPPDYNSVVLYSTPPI

CNC(=O)Nc1ccc(-c2nc(N3CC4CCC(C3)O4)c3cnn(C4CCC5(CC4)OCCO5)c3n2)cc1
inhibition [1]: 11%
inhibition [2]: 1%
inhibition [3]: 2%
inhibition [4]: 2%
inhibition [5]: -1%
inhibition [6]: -4%
inhibition [7]: 5%
inhibition [8]: 8%
inhibition [9]: 4%
inhibition [10]: 4%
inhibition [11]: 15%
inhibition [12]: 11%
inhibition [13]: -2%
inhibition [14]: 3%
IC50 (NCI-H460): 300 nM
IC50 (U-87 MG): 65 nM
Activity (MDA-MB-361 [15]): Active
Activity (MDA-MB-361 [16]): Active
Activity (HT-29 [17]): inactive
Activity (HT-29 [18]): Active
Activity (MDA-MB-361 [19]): Active
inhibition (A549 [20]): Dose-Dependent Effect
Activity (A549 [21]): Active
Activity (A498): Active
inhibition (mTORC2 (Homo sapiens)): inactive
